One data set deals with PC-9. Nature of the data set: Antiproliferative activity against human PC-9 cells measured after 48 to 72 hrs by CCK-8 method. (Formazan colour is commonly taken as a measure of viable cells.)
A short description of data set [1]: Antiproliferative activity against HEK293T cells measured after 48 to 72 hrs by CCK-8 method. The settings on record: human.
A further data set concerns SW-620. Nature of the data set: Antiproliferative activity against human SW620 cells measured after 48 to 72 hrs by CCK-8 method.
In another data set the test system is AGS. Nature of the data set: Antiproliferative activity against human AGS cells measured after 48 to 72 hrs by CCK-8 method.
In another data set the test system is Huh-7. In words: Antiproliferative activity against human Huh-7 cells measured after 48 to 72 hrs by CCK-8 method.
The next data set concerns MKN-28. In words: Antiproliferative activity against human MKN-28 cells measured after 48 to 72 hrs by CCK-8 method.
Data set [2] in a line: Antiproliferative activity against human THLE-2 cells measured after 48 to 72 hrs by CCK-8 method.

SMILES strings stand for the structures.

For the compound `COc1ccc(CNc2nc(N(CCO)CCO)nc3c2ncn3C(C)C)cc1`, the IC50 in the data set on PC-9 came out at 7.28 µM; in data set [1] it was 11.5 µM; in the data set with SW-620, 2.07 µM; with AGS, 6.84 µM; in the data set on Huh-7 it was 5.78 µM; in the data set with MKN-28, 8.73 µM. The 50% inhibitory concentration (IC50) in data set [2] was 15 µM.

In general, IC50 refers to the concentration at which inhibition is half-maximal. Low readings indicate greater potency, high ones weaker potency.
